Source: patent US20240269139A1, “COMPOUNDS FOR TARGETED PROTEIN DEGRADATION OF KINASES” (DANA-FARBER CANCER INSTITUTE, INC., priority 2020, published 2024)
Where two headings read alike, the source gives them in different places.

How the values were obtained:
Format in all cases: cell-based
[1] = target: protein kinases (human kinome) (Homo sapiens, UniProt P54753)
[2] = target: T1, protein kinases (human kinome) (Homo sapiens, UniProt Q13043); settings: for logFC: STK4 (Q13043-1)
T1 sequence (Q13043 1-487): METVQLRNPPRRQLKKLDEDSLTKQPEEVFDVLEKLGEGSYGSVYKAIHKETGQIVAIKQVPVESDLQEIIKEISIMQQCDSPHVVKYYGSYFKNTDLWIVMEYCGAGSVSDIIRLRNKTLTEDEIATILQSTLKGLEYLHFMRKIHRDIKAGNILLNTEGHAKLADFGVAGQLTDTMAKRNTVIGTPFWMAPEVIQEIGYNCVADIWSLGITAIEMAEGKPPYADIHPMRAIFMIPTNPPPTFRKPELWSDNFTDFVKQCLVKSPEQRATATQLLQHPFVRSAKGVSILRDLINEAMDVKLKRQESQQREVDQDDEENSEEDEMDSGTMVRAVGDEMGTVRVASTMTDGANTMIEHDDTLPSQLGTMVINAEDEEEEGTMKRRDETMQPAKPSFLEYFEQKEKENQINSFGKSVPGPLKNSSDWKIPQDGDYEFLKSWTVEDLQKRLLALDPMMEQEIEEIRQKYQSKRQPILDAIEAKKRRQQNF

[3] = target: protein kinases (human kinome) (Homo sapiens, UniProt Q8IW41); settings: experiment wp080
protein kinases (human kinome) (Homo sapiens, UniProt Q8IW41), sequence (Q8IW41 whole entry): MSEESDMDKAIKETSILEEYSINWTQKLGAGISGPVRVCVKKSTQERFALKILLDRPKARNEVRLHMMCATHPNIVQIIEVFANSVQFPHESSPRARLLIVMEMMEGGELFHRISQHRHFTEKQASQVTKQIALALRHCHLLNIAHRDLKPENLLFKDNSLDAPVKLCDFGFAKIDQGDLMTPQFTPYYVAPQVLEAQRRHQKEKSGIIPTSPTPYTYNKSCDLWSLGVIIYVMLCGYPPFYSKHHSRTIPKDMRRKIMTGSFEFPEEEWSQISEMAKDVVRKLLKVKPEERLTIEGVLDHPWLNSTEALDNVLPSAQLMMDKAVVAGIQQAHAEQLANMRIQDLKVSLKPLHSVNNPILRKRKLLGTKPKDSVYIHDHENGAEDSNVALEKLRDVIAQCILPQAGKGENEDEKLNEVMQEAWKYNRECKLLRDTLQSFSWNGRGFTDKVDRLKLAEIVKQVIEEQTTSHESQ

[4] = target: protein kinases (human kinome) (Homo sapiens, UniProt Q6P5Z2)
protein kinases (human kinome) (Homo sapiens, UniProt Q6P5Z2), sequence (Q6P5Z2 whole entry): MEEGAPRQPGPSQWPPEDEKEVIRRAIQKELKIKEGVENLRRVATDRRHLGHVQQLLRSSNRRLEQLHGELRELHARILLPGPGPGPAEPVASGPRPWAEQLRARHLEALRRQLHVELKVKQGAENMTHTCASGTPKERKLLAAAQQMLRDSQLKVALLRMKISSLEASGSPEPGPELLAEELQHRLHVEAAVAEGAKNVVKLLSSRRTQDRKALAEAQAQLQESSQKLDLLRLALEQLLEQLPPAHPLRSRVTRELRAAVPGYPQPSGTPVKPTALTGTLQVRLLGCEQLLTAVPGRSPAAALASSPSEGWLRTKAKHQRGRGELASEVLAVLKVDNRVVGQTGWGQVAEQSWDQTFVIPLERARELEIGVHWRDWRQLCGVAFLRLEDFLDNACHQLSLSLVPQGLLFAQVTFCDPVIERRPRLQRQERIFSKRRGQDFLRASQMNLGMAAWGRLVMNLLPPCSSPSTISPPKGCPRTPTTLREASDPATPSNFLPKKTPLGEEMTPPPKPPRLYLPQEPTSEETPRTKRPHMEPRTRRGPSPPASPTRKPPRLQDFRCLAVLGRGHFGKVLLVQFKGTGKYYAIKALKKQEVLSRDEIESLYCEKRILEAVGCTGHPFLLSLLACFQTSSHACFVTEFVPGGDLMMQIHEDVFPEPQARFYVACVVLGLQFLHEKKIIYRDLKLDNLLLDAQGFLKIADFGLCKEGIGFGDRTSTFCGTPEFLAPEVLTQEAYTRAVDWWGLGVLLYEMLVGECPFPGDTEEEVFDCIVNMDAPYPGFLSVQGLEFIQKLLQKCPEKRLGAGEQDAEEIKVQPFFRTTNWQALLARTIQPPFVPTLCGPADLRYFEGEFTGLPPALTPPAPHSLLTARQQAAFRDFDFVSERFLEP

[5] = target: T2, protein kinases (human kinome) (Homo sapiens, UniProt P29323)
T2 sequence (P29323 19-1055): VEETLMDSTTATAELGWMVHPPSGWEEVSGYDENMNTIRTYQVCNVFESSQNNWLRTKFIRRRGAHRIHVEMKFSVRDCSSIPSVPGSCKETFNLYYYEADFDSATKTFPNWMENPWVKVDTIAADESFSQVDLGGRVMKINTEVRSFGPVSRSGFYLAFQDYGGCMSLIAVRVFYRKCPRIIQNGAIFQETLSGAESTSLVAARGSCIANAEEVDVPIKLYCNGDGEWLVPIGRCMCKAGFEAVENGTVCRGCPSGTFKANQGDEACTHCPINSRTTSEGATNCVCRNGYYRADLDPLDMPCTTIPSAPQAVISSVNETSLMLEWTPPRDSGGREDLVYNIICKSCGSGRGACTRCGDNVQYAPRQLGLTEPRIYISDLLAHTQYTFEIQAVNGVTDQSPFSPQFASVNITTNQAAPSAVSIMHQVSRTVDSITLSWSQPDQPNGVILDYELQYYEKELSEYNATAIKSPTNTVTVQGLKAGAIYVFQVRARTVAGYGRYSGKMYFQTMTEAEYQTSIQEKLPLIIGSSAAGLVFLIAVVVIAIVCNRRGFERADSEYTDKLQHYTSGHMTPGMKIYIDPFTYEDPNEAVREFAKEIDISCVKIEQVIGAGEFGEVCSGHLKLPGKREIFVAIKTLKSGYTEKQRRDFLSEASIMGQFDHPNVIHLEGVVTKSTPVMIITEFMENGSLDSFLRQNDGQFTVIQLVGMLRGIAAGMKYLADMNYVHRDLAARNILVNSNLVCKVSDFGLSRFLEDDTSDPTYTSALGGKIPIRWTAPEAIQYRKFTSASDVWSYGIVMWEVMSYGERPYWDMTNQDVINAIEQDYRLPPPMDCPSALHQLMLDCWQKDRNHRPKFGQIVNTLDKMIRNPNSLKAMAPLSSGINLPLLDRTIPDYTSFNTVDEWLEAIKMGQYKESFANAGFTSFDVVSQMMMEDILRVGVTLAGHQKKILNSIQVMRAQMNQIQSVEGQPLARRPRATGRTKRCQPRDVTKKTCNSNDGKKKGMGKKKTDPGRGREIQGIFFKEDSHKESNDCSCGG

[6] = target: protein kinases (human kinome) (Homo sapiens, UniProt Q15120); settings: experiment wp160, 1 hr
protein kinases (human kinome) (Homo sapiens, UniProt Q15120), sequence (Q15120 whole entry): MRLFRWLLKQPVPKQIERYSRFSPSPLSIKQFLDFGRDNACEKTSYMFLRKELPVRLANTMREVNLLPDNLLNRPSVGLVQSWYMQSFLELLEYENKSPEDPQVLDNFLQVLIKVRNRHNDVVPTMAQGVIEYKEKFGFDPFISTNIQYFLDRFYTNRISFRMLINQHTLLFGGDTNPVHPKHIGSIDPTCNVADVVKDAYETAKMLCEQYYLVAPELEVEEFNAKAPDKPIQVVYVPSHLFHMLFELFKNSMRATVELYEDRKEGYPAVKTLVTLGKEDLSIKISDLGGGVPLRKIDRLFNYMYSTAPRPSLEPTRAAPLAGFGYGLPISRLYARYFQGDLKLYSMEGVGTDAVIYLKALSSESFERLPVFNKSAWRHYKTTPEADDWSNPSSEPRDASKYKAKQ

[7] = target: protein kinases (human kinome) (Homo sapiens, UniProt Q8TCT0); settings: protein CERK (Q8TCT0); experiment wp131; down
protein kinases (human kinome) (Homo sapiens, UniProt Q8TCT0), sequence (Q8TCT0 whole entry): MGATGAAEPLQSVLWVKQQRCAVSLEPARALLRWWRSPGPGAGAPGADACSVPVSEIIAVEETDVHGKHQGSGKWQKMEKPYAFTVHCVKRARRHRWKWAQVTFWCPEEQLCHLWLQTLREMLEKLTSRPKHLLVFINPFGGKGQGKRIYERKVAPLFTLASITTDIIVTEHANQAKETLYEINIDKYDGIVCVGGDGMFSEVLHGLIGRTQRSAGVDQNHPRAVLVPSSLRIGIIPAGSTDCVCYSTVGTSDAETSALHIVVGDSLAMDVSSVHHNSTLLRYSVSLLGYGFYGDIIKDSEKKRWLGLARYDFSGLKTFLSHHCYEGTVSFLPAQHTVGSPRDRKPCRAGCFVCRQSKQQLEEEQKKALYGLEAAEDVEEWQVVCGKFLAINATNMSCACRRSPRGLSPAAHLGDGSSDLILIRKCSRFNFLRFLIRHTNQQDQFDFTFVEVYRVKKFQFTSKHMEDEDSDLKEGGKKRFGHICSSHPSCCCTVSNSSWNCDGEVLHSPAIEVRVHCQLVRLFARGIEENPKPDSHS

[8] = Experiment wp114, direction of change down

protein kinases (human kinome) (Homo sapiens, UniProt P54753), sequence (P54753 34-998): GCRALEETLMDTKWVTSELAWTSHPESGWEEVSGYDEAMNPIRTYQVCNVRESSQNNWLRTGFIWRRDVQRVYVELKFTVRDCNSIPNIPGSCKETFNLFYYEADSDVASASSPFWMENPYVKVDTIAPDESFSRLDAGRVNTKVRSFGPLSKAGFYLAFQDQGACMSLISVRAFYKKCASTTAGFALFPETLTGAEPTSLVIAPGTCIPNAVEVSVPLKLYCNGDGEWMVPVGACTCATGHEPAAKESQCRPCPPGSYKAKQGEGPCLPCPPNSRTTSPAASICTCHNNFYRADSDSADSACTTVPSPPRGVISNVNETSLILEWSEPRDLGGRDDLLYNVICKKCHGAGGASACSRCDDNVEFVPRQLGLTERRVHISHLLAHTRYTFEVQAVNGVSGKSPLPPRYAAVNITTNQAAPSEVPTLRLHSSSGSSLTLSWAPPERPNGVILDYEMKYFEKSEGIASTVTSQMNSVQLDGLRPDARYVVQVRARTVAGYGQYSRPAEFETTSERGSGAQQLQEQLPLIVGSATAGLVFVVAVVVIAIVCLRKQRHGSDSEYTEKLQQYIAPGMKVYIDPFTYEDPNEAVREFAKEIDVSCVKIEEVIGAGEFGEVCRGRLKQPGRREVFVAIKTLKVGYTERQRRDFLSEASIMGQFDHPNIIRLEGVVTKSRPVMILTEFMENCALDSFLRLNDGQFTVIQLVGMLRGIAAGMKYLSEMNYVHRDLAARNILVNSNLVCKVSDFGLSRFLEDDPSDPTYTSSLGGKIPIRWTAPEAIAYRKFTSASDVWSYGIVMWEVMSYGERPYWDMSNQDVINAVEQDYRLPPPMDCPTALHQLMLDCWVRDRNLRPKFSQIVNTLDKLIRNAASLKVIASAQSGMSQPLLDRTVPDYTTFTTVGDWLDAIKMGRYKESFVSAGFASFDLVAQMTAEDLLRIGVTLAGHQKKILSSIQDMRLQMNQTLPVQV

In the case of `Cc1ccc(NC(=O)c2cccc(C(F)(F)F)c2)cc1N1Cc2cnc(Nc3ccc(N4CCN(Cc5cn(CCCCCOc6cccc7c6C(=O)N(C6CCC(=O)NC6=O)C7=O)nn5)CC4)nc3)nc2N(C)C1=O` (stereo not shown) [DB0646, N-(3-(7-((6-(4-((1-(5-((2-(2,6-Dioxopiperidin-3-yl)-1,3-dioxoisoindolin-4-yl)oxy)pentyl)-1H-1,2,3-triazol-4-yl)methyl)piperazin-1-v)pyridin-3-yl)amino)-1-methyl-2-oxo-1,4-dihydropyrimido[4,5-d]pyrimidin-3(2H)-yl)-4-methylphenyl)-3-(trifluoromethyl)benzamide], the “logFC EPHB3 (P54753)” value [1, 8] was −0.4175 and the “logFC EPHB3” value ([1]; protein EPHB3 (P54753), experiment wp114, down) was −0.4175.
With `Nc1ncc(-c2ccc(S(=O)(=O)N(CCCNC(=O)CCOCCOCCOCCOCCOCCNc3cccc4c3C(=O)N(C3CCC(=O)NC3=O)C4=O)C3CC3)cc2)cc1-c1ccc2c(c1)CCNC2=O` (stereo not shown) [WH.10417.099] the “logFC of STK4 (Q13043-1)” value ([2]; Experiment wp103) was −0.7387, the “logFC of STK4 (Q13043-1)” value ([2]; Experiment wp107) was −0.7188 and the “logFC of STK4 (Q13043-1)” value ([2]; Experiment wp172) was −0.5983. The logFC ([2]; experiment wp056) was −0.7157, the logFC ([2]; experiment wp103) was −0.7387 and the logFC ([2]; experiment wp107) was −0.7188. The logFC ([2]; experiment wp172) was −0.5983 and the “logFC of STK4 (Q13043-1)” value ([2]; experiment wp056) was −0.7157.
`Cc1ncsc1-c1ccc([C@H](C)NC(=O)[C@@H]2C[C@@H](O)CN2C(=O)[C@@H](NC(=O)CCCCCN2CCN(c3ccc(Nc4ncc5scc(-c6cccc(NS(C)(=O)=O)c6)c5n4)cc3)CC2)C(C)(C)C)cc1` [RSS0680, (2S,4R)-1-((S)-3,3-Dimethyl-2-(6-(4-(4-((7-(3-(methylsulfonamido)phenyl)thieno[3,2-d]pyrimidin-2-yl)amino)phenyl)piperazin-1-yl)hexanamido)butanoyl)-4-hydroxy-N—((S)-1-(4-(4-methylthiazol-5yl)phenyl)ethyl)pyrrolidine-2-carboxamide] was tested, and the “logFC MAPKAPK5 (Q8IW41)” value ([3]; direction of change down) was −0.3355 and the “logFC MAPKAPK5” value ([3]; protein MAPKAPK5 (Q8IW41), down) was −0.3355.
`Cc1ncsc1-c1ccc([C@H](C)NC(=O)[C@@H]2C[C@@H](O)CN2C(=O)[C@@H](NC(=O)CCOCCOCCN2CCN(c3ccc(Nc4ncc(Cl)c(Nc5ccccc5S(=O)(=O)C(C)C)n4)cc3)CC2)C(C)(C)C)cc1` [FMF.06.098.1] was tested, and the “logFC PKN3 (Q6P5Z2)” value [4, 8] was −0.451 and the “logFC PKN3” value ([4]; protein PKN3 (Q6P5Z2), experiment wp114, down) was −0.451.
`CC(C)S(=O)(=O)c1ccccc1Nc1nc(Nc2ccc(N3CCN(CCOCCNC(=O)CNc4cccc5c4C(=O)N(C4CCC(=O)NC4=O)C5=O)CC3)cc2)ncc1Cl` (stereo not shown) [SK.3.91] was tested, and the logFC ([5]; EPHB2 (P29323), experiment wp107) was −0.6293, the “logFC of EPHB2 (P29323)” value ([5]; Experiment wp107) was −0.6293 and the “logFC PDK3 (Q15120-1)” value [6] was −0.9801. The “logFC of PDK3 (Q15120-1)” value [6] was −0.9801.
For `CC(C)S(=O)(=O)c1ccccc1Nc1nc(Nc2ccc(N3CCN(CCOCCOCCNC(=O)CNc4cccc5c4C(=O)N(C4CCC(=O)NC4=O)C5=O)CC3)cc2)ncc1Cl` (stereo not shown) [TL12.186], the “logFC CERK” value [7] was −0.3343.
